This note sets out measurements from PMC5037758, “Affinity of ^nat/68Ga-Labelled Curcumin and Curcuminoid Complexes for β-Amyloid Plaques: Towards the Development of New Metal-Curcumin Based Radiotracers” (International Journal of Molecular Sciences, 2016).

Assay [1] deals with T1, amyloid β-protein (1–40) (Homo sapiens, UniProt P05067).
T1 construct: gene APP; Aβ(1–40) synthetic amyloid fibrils
The assay can be described thus: direct radioligand binding to fibrils (not displaced by curcumin, lower specificity); fluorescence microscopy.

The target of assay [2] is T1, amyloid β-protein (1–40). The assay can be described thus: direct radioligand binding to fibrils with displacement by curcumin; fluorescence microscopy.

Bounds are passed on as bounds.

T1 sequence (P05067 672-711): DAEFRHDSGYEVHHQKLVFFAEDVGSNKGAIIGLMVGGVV

For the substance ^68Ga(bDHC)2^+, at amyloid β-protein (1–40) [1], the “% bound” value was ~ 50 % bound.

As to ^68Ga(CUR)2^+, the “% bound” value at amyloid β-protein (1–40) [2] is recorded as above 90 % bound.

On to ^68Ga(DAC)2^+, for which the “% bound” value on amyloid β-protein (1–40) [2] is above 90 % bound.
